Test results: PubChem BioAssay (NCI)
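Briefly, cells in 96-well plates were exposed to five compound concentrations for 48 h, and endpoints were estimated by linear interpolation. The concentration for full growth arrest is given as TGI.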

What follows are molecules tested on SF-268 CNS (assay: NCI tumour cell line growth inhibition, 48 h).
With N/C(=N\Nc1ccc(C(=O)O)cc1)c1cnccn1 the TGI was > 100 µM.
For CCN(CC)c1ccc(/C=C/C2=NN(c3cccc(S(=O)(=O)O)c3)C3(C2)SCC(=O)N3c2nc3ccccc3s2)cc1 (configuration not stated), the TGI was > 100 µM.
With CC(C)NC(=O)OCc1c(COC(=O)NC(C)C)n(C)c2c1ccc1ccsc12 the TGI was 25.4 µM.
With COC(=O)C12C3C4C1C1C2C3C41C(=O)NC(C)(C)CC(=O)O (configuration not stated) the TGI was > 100 µM.

These molecules were tested on CCRF-CEM leukemia (assay: NCI tumour cell line growth inhibition, 48 h).
In the case of CCN(CC)c1ccc(/C=C/C2=NN(c3cccc(S(=O)(=O)O)c3)C3(C2)SCC(=O)N3c2nc3ccccc3s2)cc1 (configuration not stated), the TGI is reported as 55 µM.
CC(C)NC(=O)OCc1c(COC(=O)NC(C)C)n(C)c2c1ccc1ccsc12 showed a TGI of 7.31 µM.
In the case of COC(=O)C12C3C4C1C1C2C3C41C(=O)NC(C)(C)CC(=O)O (configuration not stated), the TGI is reported as > 100 µM.

The molecules below were run on NCI-H522 lung (assay: NCI tumour cell line growth inhibition, 48 h).
N/C(=N\Nc1ccc(C(=O)O)cc1)c1cnccn1 was tested, and the TGI was > 100 µM.
CCN(CC)c1ccc(/C=C/C2=NN(c3cccc(S(=O)(=O)O)c3)C3(C2)SCC(=O)N3c2nc3ccccc3s2)cc1 (configuration not stated) gave a TGI of 67.2 µM.
CC(C)NC(=O)OCc1c(COC(=O)NC(C)C)n(C)c2c1ccc1ccsc12 gave a TGI of 21.5 µM.
COC(=O)C12C3C4C1C1C2C3C41C(=O)NC(C)(C)CC(=O)O (configuration not stated) was tested, and the TGI was > 100 µM.

The molecules below were run on LOX IMVI melanoma (assay: NCI tumour cell line growth inhibition, 48 h).
For N/C(=N\Nc1ccc(C(=O)O)cc1)c1cnccn1, the TGI was > 100 µM.
In the case of CCN(CC)c1ccc(/C=C/C2=NN(c3cccc(S(=O)(=O)O)c3)C3(C2)SCC(=O)N3c2nc3ccccc3s2)cc1 (configuration not stated), the TGI is reported as > 100 µM.
With CC(C)NC(=O)OCc1c(COC(=O)NC(C)C)n(C)c2c1ccc1ccsc12 the TGI was 30 µM.
For COC(=O)C12C3C4C1C1C2C3C41C(=O)NC(C)(C)CC(=O)O (configuration not stated), the TGI was > 100 µM.

Each molecule was assayed on SF-539 CNS (assay: NCI tumour cell line growth inhibition, 48 h).
For N/C(=N\Nc1ccc(C(=O)O)cc1)c1cnccn1, the TGI was > 100 µM.
With CCN(CC)c1ccc(/C=C/C2=NN(c3cccc(S(=O)(=O)O)c3)C3(C2)SCC(=O)N3c2nc3ccccc3s2)cc1 (configuration not stated) the TGI was > 100 µM.
COC(=O)C12C3C4C1C1C2C3C41C(=O)NC(C)(C)CC(=O)O (configuration not stated) was tested, and the TGI was > 100 µM.

Each molecule was assayed on ACHN renal (assay: NCI tumour cell line growth inhibition, 48 h).
With N/C(=N\Nc1ccc(C(=O)O)cc1)c1cnccn1 the TGI was > 100 µM.
In the case of CCN(CC)c1ccc(/C=C/C2=NN(c3cccc(S(=O)(=O)O)c3)C3(C2)SCC(=O)N3c2nc3ccccc3s2)cc1 (configuration not stated), the TGI is reported as > 100 µM.
For CC(C)NC(=O)OCc1c(COC(=O)NC(C)C)n(C)c2c1ccc1ccsc12, the TGI was 14.2 µM.
In the case of COC(=O)C12C3C4C1C1C2C3C41C(=O)NC(C)(C)CC(=O)O (configuration not stated), the TGI is reported as > 100 µM.

The molecules below were run on OVCAR-8 ovarian (assay: NCI tumour cell line growth inhibition, 48 h).
In the case of N/C(=N\Nc1ccc(C(=O)O)cc1)c1cnccn1, the TGI is reported as > 100 µM.
For CCN(CC)c1ccc(/C=C/C2=NN(c3cccc(S(=O)(=O)O)c3)C3(C2)SCC(=O)N3c2nc3ccccc3s2)cc1 (configuration not stated), the TGI was > 100 µM.
For CC(C)NC(=O)OCc1c(COC(=O)NC(C)C)n(C)c2c1ccc1ccsc12, the TGI was 40.5 µM.
For COC(=O)C12C3C4C1C1C2C3C41C(=O)NC(C)(C)CC(=O)O (configuration not stated), the TGI was > 100 µM.

The molecules below were run on MDA-MB-435 (assay: NCI tumour cell line growth inhibition, 48 h).
In the case of N/C(=N\Nc1ccc(C(=O)O)cc1)c1cnccn1, the TGI is reported as > 100 µM.
For CCN(CC)c1ccc(/C=C/C2=NN(c3cccc(S(=O)(=O)O)c3)C3(C2)SCC(=O)N3c2nc3ccccc3s2)cc1 (configuration not stated), the TGI was 47.2 µM.
CC(C)NC(=O)OCc1c(COC(=O)NC(C)C)n(C)c2c1ccc1ccsc12 showed a TGI of 25.3 µM.
COC(=O)C12C3C4C1C1C2C3C41C(=O)NC(C)(C)CC(=O)O (configuration not stated) was tested, and the TGI was > 100 µM.

The molecules below were run on UACC-257 melanoma (assay: NCI tumour cell line growth inhibition, 48 h).
N/C(=N\Nc1ccc(C(=O)O)cc1)c1cnccn1 was tested, and the TGI was > 100 µM.
For CCN(CC)c1ccc(/C=C/C2=NN(c3cccc(S(=O)(=O)O)c3)C3(C2)SCC(=O)N3c2nc3ccccc3s2)cc1 (configuration not stated), the TGI was > 100 µM.
CC(C)NC(=O)OCc1c(COC(=O)NC(C)C)n(C)c2c1ccc1ccsc12 showed a TGI of 31.7 µM.
For COC(=O)C12C3C4C1C1C2C3C41C(=O)NC(C)(C)CC(=O)O (configuration not stated), the TGI was > 100 µM.

What follows are molecules tested on MCF7 breast (assay: NCI tumour cell line growth inhibition, 48 h).
N/C(=N\Nc1ccc(C(=O)O)cc1)c1cnccn1 was tested, and the TGI was > 100 µM.
CCN(CC)c1ccc(/C=C/C2=NN(c3cccc(S(=O)(=O)O)c3)C3(C2)SCC(=O)N3c2nc3ccccc3s2)cc1 (configuration not stated) was tested, and the TGI was 91.2 µM.
With CC(C)NC(=O)OCc1c(COC(=O)NC(C)C)n(C)c2c1ccc1ccsc12 the TGI was > 53.1 µM.
For COC(=O)C12C3C4C1C1C2C3C41C(=O)NC(C)(C)CC(=O)O (configuration not stated), the TGI was > 100 µM.

Each molecule was assayed on T-47D breast (assay: NCI tumour cell line growth inhibition, 48 h).
With N/C(=N\Nc1ccc(C(=O)O)cc1)c1cnccn1 the TGI was > 100 µM.
Molecule CCN(CC)c1ccc(/C=C/C2=NN(c3cccc(S(=O)(=O)O)c3)C3(C2)SCC(=O)N3c2nc3ccccc3s2)cc1 (configuration not stated) has a TGI of 53.9 µM.
For CC(C)NC(=O)OCc1c(COC(=O)NC(C)C)n(C)c2c1ccc1ccsc12, the TGI was > 100 µM.
With COC(=O)C12C3C4C1C1C2C3C41C(=O)NC(C)(C)CC(=O)O (configuration not stated) the TGI was > 100 µM.

What follows are molecules tested on A549 NSCLC (assay: NCI tumour cell line growth inhibition, 48 h).
In the case of N/C(=N\Nc1ccc(C(=O)O)cc1)c1cnccn1, the TGI is reported as > 100 µM.
CCN(CC)c1ccc(/C=C/C2=NN(c3cccc(S(=O)(=O)O)c3)C3(C2)SCC(=O)N3c2nc3ccccc3s2)cc1 (configuration not stated) was tested, and the TGI was > 100 µM.
CC(C)NC(=O)OCc1c(COC(=O)NC(C)C)n(C)c2c1ccc1ccsc12 gave a TGI of 47.4 µM.
With COC(=O)C12C3C4C1C1C2C3C41C(=O)NC(C)(C)CC(=O)O (configuration not stated) the TGI was > 100 µM.

The molecules below were run on U251 CNS (assay: NCI tumour cell line growth inhibition, 48 h).
For N/C(=N\Nc1ccc(C(=O)O)cc1)c1cnccn1, the TGI was > 100 µM.
With CCN(CC)c1ccc(/C=C/C2=NN(c3cccc(S(=O)(=O)O)c3)C3(C2)SCC(=O)N3c2nc3ccccc3s2)cc1 (configuration not stated) the TGI was > 100 µM.
CC(C)NC(=O)OCc1c(COC(=O)NC(C)C)n(C)c2c1ccc1ccsc12 was tested, and the TGI was 35.8 µM.
For COC(=O)C12C3C4C1C1C2C3C41C(=O)NC(C)(C)CC(=O)O (configuration not stated), the TGI was > 100 µM.

The molecules below were run on NCI-H226 lung (assay: NCI tumour cell line growth inhibition, 48 h).
For N/C(=N\Nc1ccc(C(=O)O)cc1)c1cnccn1, the TGI was > 100 µM.
CCN(CC)c1ccc(/C=C/C2=NN(c3cccc(S(=O)(=O)O)c3)C3(C2)SCC(=O)N3c2nc3ccccc3s2)cc1 (configuration not stated) was tested, and the TGI was > 100 µM.
CC(C)NC(=O)OCc1c(COC(=O)NC(C)C)n(C)c2c1ccc1ccsc12 showed a TGI of 28.7 µM.
In the case of COC(=O)C12C3C4C1C1C2C3C41C(=O)NC(C)(C)CC(=O)O (configuration not stated), the TGI is reported as > 100 µM.

Each molecule was assayed on NCI-H460 lung (assay: NCI tumour cell line growth inhibition, 48 h).
With N/C(=N\Nc1ccc(C(=O)O)cc1)c1cnccn1 the TGI was > 100 µM.
CCN(CC)c1ccc(/C=C/C2=NN(c3cccc(S(=O)(=O)O)c3)C3(C2)SCC(=O)N3c2nc3ccccc3s2)cc1 (configuration not stated) was tested, and the TGI was > 100 µM.
CC(C)NC(=O)OCc1c(COC(=O)NC(C)C)n(C)c2c1ccc1ccsc12 gave a TGI of 21.2 µM.
